Experimental data taken from article PMC8838197, “Coumarin-Resveratrol-Inspired Hybrids as Monoamine Oxidase B Inhibitors: 3-Phenylcoumarin versus trans-6-Styrylcoumarin” (Molecules, 2022).
“And” between values parts separate entries of the source, which are not always exact repeats. Identical values can stand only once. Like-named read-outs stand apart in the source and are kept apart here.

What was measured:
MAO-B = system: MAO-B; design: pIC50 MAO-B: unit not given here; conditions: cited from earlier work; for MAO-B pIC50: data set compounds
MAO-A = conditions: cited from earlier work; for pIC50 MAO-A: Table S8; for MAO-A pIC50: data set compounds
hMAO-A = target: T1, hMAO-A (Homo sapiens, UniProt P21397); assay: hMAO-A inhibition, Amplex Red MAO assay, recombinant enzyme
T1 sequence (P21397 1-527): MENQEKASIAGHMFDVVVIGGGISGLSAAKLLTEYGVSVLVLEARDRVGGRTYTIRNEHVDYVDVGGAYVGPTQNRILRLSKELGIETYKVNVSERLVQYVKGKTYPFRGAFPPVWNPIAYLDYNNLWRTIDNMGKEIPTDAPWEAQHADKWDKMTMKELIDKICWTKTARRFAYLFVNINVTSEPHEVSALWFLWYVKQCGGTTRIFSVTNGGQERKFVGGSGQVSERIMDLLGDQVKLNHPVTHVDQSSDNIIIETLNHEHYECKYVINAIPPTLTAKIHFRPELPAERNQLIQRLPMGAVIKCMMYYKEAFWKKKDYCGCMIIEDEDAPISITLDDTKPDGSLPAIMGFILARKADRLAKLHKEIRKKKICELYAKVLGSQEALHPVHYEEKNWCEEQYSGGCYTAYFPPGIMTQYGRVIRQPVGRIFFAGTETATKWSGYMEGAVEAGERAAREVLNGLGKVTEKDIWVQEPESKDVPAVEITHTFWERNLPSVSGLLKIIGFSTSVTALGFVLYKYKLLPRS

hMAO-B = target: T2, hMAO-B (Homo sapiens, UniProt P27338); assay: hMAO-B inhibition, Amplex Red MAO assay, recombinant enzyme
T2 sequence (P27338 1-520): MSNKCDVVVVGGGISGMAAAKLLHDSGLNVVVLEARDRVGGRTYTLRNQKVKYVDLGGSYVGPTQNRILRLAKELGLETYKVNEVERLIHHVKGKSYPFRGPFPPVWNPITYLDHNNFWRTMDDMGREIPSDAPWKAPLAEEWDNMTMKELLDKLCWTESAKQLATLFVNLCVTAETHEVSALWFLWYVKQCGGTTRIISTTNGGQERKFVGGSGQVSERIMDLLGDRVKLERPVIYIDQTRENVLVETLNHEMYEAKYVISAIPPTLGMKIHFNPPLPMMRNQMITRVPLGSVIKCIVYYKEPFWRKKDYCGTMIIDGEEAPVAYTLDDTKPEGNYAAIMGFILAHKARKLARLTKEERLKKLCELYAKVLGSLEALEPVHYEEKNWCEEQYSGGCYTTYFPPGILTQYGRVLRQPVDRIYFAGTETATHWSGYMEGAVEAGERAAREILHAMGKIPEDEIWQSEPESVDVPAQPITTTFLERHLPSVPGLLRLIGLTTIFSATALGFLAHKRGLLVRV

Compound	pIC50 MAO-B (MAO-B; Table S8)	pIC50 MAO-A (MAO-A)	other results
Cc1cc(=O)oc2cc(NC(=O)c3ccco3)ccc12 [Compound 163]	5.3	4.521	MAO-A pIC50 (MAO-A): < 5.0
Cc1cc(=O)oc2cc(NC(=O)CBr)ccc12 [Compound 158]	In	4.107	IC50 MAO-B (MAO-B; Table S8): In; MAO-A pIC50 (MAO-A): < 5.0
CC(=O)Nc1ccc2c(C)cc(=O)oc2c1 [Compound 153]		4.59	
O=c1oc2ccc3ccccc3c2cc1-c1ccc(O)cc1 [Compound 81]	6.337	4.626	
COc1ccc(-c2cc3cccc(OC)c3oc2=O)cc1 [Compound 55]			MAO-A pIC50 (MAO-A): < 5.0
O=c1oc2ccccc2cc1-c1ccccc1 [3-Phenylcoumarin]			IC50 (hMAO-A): > 100 µM; S.I. (hMAO-B selectivity index = IC50 (hMAO-A)/IC50 (hMAO-B)) (hMAO-B): >8.47; pIC50 MAO-B Exp. (hMAO-B; Table 3): 4.928; IC50 (hMAO-B; read-out: IC50 hMAO-B, recombinant hMAO-B expressed in baculovirus-infected BTI insect cells, n = 5): 11.8 µM
Cc1ccc2oc(=O)c(-c3ccc([N+](=O)[O-])cc3)cc2c1 [Compound 88]	8.678	5.379	
O=c1oc2cc(O)ccc2cc1-c1ccsc1 [Compound 143]	5.071	5.118	
Cc1ccc(-c2cc3cc(O)ccc3oc2=O)cc1 [Compound 14]	7.173	4.604	
O=c1ccc2cc(/C=C/c3ccccc3)ccc2o1 [trans-6-Styrylcoumarin]			IC50 (hMAO-A): > 100 µM; melting point: 134 to 135 °C; IC50 (hMAO-B): 0.11 µM; S.I. (hMAO-B selectivity index = IC50 (hMAO-A)/IC50 (hMAO-B)) (hMAO-B): >909.09; times more active on MAO-B than the best compound of the resveratrol derivative series of Kong et al. (hMAO-B; comparison with ref 13): 110; times more active on MAO-B than 3-phenylcoumarin (hMAO-B; ratio of IC50): 107; times more active on MAO-B than trans-resveratrol (hMAO-B; ratio of IC50): 267
O=c1oc2cc(O)ccc2cc1-c1cc(Br)cs1 [Compound 146]	6.854	5.038	
Cc1ccc2oc(=O)c(-c3ccccc3O)cc2c1 [Compound 24]	6.921	4.666	MAO-B pIC50 (MAO-B): > 6.5 and < 6.5
Cc1ccc2oc(=O)c(-c3cccc(O)c3)cc2c1 [Compound 23]	6.187	4.455	
O=c1oc2c(O)c(O)ccc2cc1-c1cc(Br)cs1 [Compound 147]	4.663	5.216	
COc1ccc(-c2cc3cccc(C)c3oc2=O)cc1 [Compound 37]	8.465	4.666	MAO-A pIC50 (MAO-A): < 5.0
CCC(=O)Nc1ccc2c(C)cc(=O)oc2c1 [Compound 154]		4.015	
O=C(O)COc1ccc2oc(=O)c(-c3ccc(Br)cc3)cc2c1 [Compound 73]	8.154	4.898	MAO-B pIC50 (MAO-B): > 6.5; MAO-A pIC50 (MAO-A): < 5.0
O=c1oc2ccc(O)cc2cc1-c1ccccc1 [Compound 63]	5.47	4.524	
Cc1cc(=O)oc2cc(NC(=O)C(C)C)ccc12 [Compound 155]	4.937	4.611	

Compound	pIC50 MAO-B (MAO-B; Table S8)	pIC50 MAO-A (MAO-A)	other results
O=c1oc2c(O)c(O)ccc2cc1-c1ccsc1 [Compound 144]	5.323	5.879	
O=c1oc2c(O)cccc2cc1-c1ccsc1 [Compound 142]		4.754	
COc1cc(-c2cc3cc(C)cc(Br)c3oc2=O)cc(OC)c1OC [Compound 11]	5.311	4.506	MAO-A pIC50 (MAO-A): < 5.0
O=c1oc2ccc(OC3CCCC3)cc2cc1-c1cccc(Br)c1 [Compound 72]	5.747	4.354	MAO-A pIC50 (MAO-A): < 5.0
Cc1cc(=O)oc2cc(NC(=O)CC(C)C)ccc12 [Compound 156]	6.357	4.339	
O=c1oc2ccc(O)cc2cc1-c1ccc(Br)cc1 [Compound 68]	7.495	4.892	
COc1ccc(-c2cc3cc(C)ccc3oc2=O)cc1 [Compound 2]	7.884		
COc1ccc2oc(=O)c(C(=O)Nc3ccccc3)cc2c1 [Compound 116]	8.225		
COc1ccccc1-c1cc2cc(C)ccc2oc1=O [Compound 6]	6.808		MAO-B pIC50 (MAO-B): > 6.5
Cc1ccc2oc(=O)c(C(=O)Nc3ccc(Cl)cc3)cc2c1 [Compound 114]	7.955		MAO-B pIC50 (MAO-B): > 6.5
Cc1cccc(NC(=O)c2cc3cc(C)ccc3oc2=O)c1 [Compound 111]	8.124		
O=C(Nc1cc2ccccc2oc1=O)C1CCCCC1 [Compound 49]	4.301		
COc1ccc2oc(=O)c(-c3ccc(C)cc3)cc2c1 [Compound 13]	8.818		
Cc1ccc(NC(=O)c2cc3cc(C)ccc3oc2=O)cc1 [Compound 100]	7.857		
COc1ccc2oc(=O)c(C(=O)Nc3cccc(O)c3)cc2c1 [Compound 119]	6.641		
Cc1ccc2occ(C(=O)Nc3ccc(O)cc3)c(=O)c2c1 [Compound 128]	6.29		MAO-B pIC50 (MAO-B): < 6.5
COc1ccc(-c2cc3cc(Br)ccc3oc2=O)cc1 [Compound 53]	8.222		
Cc1ccc(NC(=O)c2coc3ccc(C)cc3c2=O)cc1 [Compound 126]	6.819		
O=C(Nc1c(O)c2ccccc2oc1=O)C1CCCCC1 [Compound 97]	4.648		

Compound	pIC50 MAO-B (MAO-B; Table S8)	pIC50 MAO-A (MAO-A)	other results
Cc1cccc(NC(=O)c2cc3cc(C)ccc3oc2=O)c1 [Compound 99]	8.124		
COc1ccc2oc(=O)c(C(=O)Nc3ccc(C)cc3)cc2c1 [Compound 120]	7.712		
Cc1ccc2oc(=O)c(-c3ccc(O)c(O)c3)cc2c1 [Compound 136]	5.328		
COc1cc(C(=O)Nc2cc3ccccc3oc2=O)cc(OC)c1OC [Compound 47]	4.139		
O=C(Nc1c(O)c2ccccc2oc1=O)c1cccs1 [Compound 95]	4.81		
Cc1ccc(C(=O)Nc2cc3cc(C)ccc3oc2=O)cc1 [Compound 41]	6.77	4.337	
O=c1oc2ccc(OC3CCCC3)cc2cc1-c1ccc(Br)cc1 [Compound 70]	5.154		
O=c1oc2ccc3ccccc3c2cc1-c1cccc(O)c1 [Compound 82]	5.296	4.591	Experimental pIC50 (MAO-A inhibitors) (MAO-A; Table S12): 4.354
Cc1cccc(NC(=O)c2coc3ccc(C)cc3c2=O)c1 [Compound 123]	7.767		
O=c1oc2c(O)cccc2cc1-c1cc(Br)cs1 [Compound 145]		5.207	
COc1ccc2occ(C(=O)Nc3ccc(C)cc3)c(=O)c2c1 [Compound 133]	6.676		
CC(=O)COc1ccc2oc(=O)c(-c3cccc(Br)c3)cc2c1 [Compound 71]	5.83		
O=C(Nc1cc2ccccc2oc1=O)c1cccs1 [Compound 94]	5.644		
COc1cc(OC)cc(-c2cc3cc(C)cc(Br)c3oc2=O)c1 [Compound 10]	8.148		MAO-B pIC50 (MAO-B): > 6.5
COc1cc(OC)c(Br)c(-c2cc3cc(C)ccc3oc2=O)c1 [Compound 22]	4.267		
COc1ccc(-c2cc3cc([N+](=O)[O-])ccc3oc2=O)cc1 [Compound 54]	8.523	5.932	
Cc1ccc2occ(C(=O)Nc3cccc(O)c3)c(=O)c2c1 [Compound 125]	7.107		
COc1cc(OC)cc(-c2cc3cc(C)ccc3oc2=O)c1 [Compound 3]	8.047		
